# According to patent US20240415819A1, “MACROCYCLIC COMPOUNDS AS PROTEASOME SUBUNIT BETA TYPE-5 INHIBITORS” (Lead Discovery Center GmbH, priority 2021, published 2024):
# Assays:
# [1] = tested on: A549 (human lung carcinoma cell line); experiment: Glo assay of A549 cells (Table 3; ProteasomeGlo plating scheme); format: cell-based; conditions: Homo sapiens; A549 cells; read-out: PGLo A549
# Summary of the method: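 IC50 values (nM) come from a cell-based chymotrypsin-like Proteasome-Glo luminescence assay. Compound exposure ran 105 min at 37° C.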
# [2] = tested on: HT-29 cells; experiment: CellTiter-Glo luminescent cell viability assay with HT-29 cells (72h incubation); format: cell-based, human; conditions: Homo sapiens, HT-29, HT29 cells, read-out: CTG HT29
# Summary of the method: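 400 cells per well in DMEM/10% FCS were dosed after 24 h and kept 72 h at 37 °C, 5% CO2. ATP-based luminescence (CellTiter-Glo) normalized to DMSO and 10 μM staurosporine controls; IC50 by dose-response fit.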
# [3] = molecular target: T1, β5 subunit of the human immunoproteasome (IPS) (Homo sapiens, UniProt P28062); experiment: β5 inhibition assay, human immunoproteasome (Suc-LLVY-AMC); format: biochemical; conditions: IC50 class, Suc-LLVY-AMC substrate
# T1 construct: purchased Boston Biochem E-370
# Summary of the method: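 Human immunoproteasome (1 nM final) was preincubated 10 min at RT with compound in 100 mM HEPES pH 7.5, 50 mM NaCl, 0.02% SDS, 1 mM DTT. Suc-LLVY-AMC (22.6 μM final) was then added for 4 h at RT in the dark. After stopping with 1 μM bortezomib, AMC fluorescence was read (ex 355/em 460 nm).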
SMILES,IC50 [1] [nM],IC50 [2] [nM],IC50 [3] [nM]
"Cc1ccc2cc1CNC(=O)C(CCc1ccncc1)NC(=O)[C@@H](NC(=O)Cc1nnc(N)s1)CC(=O)N1CCCC(CCO2)C1 (stereo partly drawn) [Compound 342, 2-(5-amino-1,3,4-thiadiazol-2-yl)-N-((12S)-5^4-methyl-8,11,14-trioxo-9-(2-(pyridin-4-yl)ethyl)-4-oxa-7,10-diaza-1(3,1)-piperidina-5(1,3)-benzenacyclotetradecaphane-12-yl)acetamide]",< 100,< 100,< 100
"Cc1ccc2cc1CNC(=O)C(CCc1ccncc1)NC(=O)[C@@H](NC(=O)C1(c3ccc(N)cc3)CC1)CC(=O)N1CCCC(CCO2)C1 (stereo partly drawn) [Compound 343, 1-(4-aminophenyl)-N-((12S)-5^4-methyl-8,11,14-trioxo-9-(2-(pyridin-4-yl)ethyl)-4-oxa-7,10-diaza-1(3,1)-piperidina-5(1,3)-benzenacyclotetradecaphane-12-yl)cyclopropane-1-carboxamide]",< 100,< 100,< 100
"Cc1ccc2cc1CNC(=O)C(CCc1ccncc1)NC(=O)[C@@H](NC(=O)Cc1ccc(N)cc1F)CC(=O)N1CCCC(CCO2)C1 (stereo partly drawn) [Compound 344, 2-(4-amino-2-fluorophenyl)-N-((12S)-5^4-methyl-8,11,14-trioxo-9-(2-(pyridin-4-yl)ethyl)-4-oxa-7,10-diaza-1(3,1)-piperidina-5(1,3)-benzenacyclotetradecaphane-12-yl)acetamide]",< 100,< 100,< 100
"CCOC(C(=O)N[C@H]1CC(=O)N2CCCC(CCOc3ccc(C)c(c3)CNC(=O)[C@H](CCc3ccccc3)NC1=O)C2)c1ccc(N)cc1 (stereo partly drawn) [Compound 345, 2-(4-aminophenyl)-2-ethoxy-N-((9S,12S)-5^4-methyl-8,11,14-trioxo-9-phenethyl-4-oxa-7,10-diaza-1(3,1)-piperidina-5(1,3)-benzenacyclotetradecaphane-12-yl)acetamide]",100 to 500,< 100,< 100
"Cc1ccc2cc1CNC(=O)[C@H](CCc1ccccc1)NC(=O)[C@@H](NC(=O)OCc1ccccc1)CCCCC(=O)NCCCCO2 [Compound 347, benzyl ((13S,16S)-1^4-methyl-8,14,17-trioxo-16-phenethyl-2-oxa-7,15,18-triaza-1(1,3)-benzenacyclononadecaphane-13-yl)carbamate]",100 to 500,< 100,< 100
"Cc1ccc2cc1CNC(=O)[C@@H](CCc1ccccc1)NC(=O)[C@H](NC(=O)C(C)(C)CS)CC(=O)N1CCCC(CCO2)C1 (stereo partly drawn) [Compound 348, 3-mercapto-2,2-dimethyl-N-((9S,12S)-5^4-methyl-8,11,14-trioxo-9-phenethyl-4-oxa-7,10-diaza-1(3,1)-piperidina-5(1,3)-benzenacyclotetradecaphane-12-yl)propanamide]",< 100,< 100,< 100
"Cc1ccc2cc1CNC(=O)[C@H](CCc1ccccc1)NC(=O)[C@@H](NC(=O)OCc1ccccc1)CCC(=O)N1CCC(CO2)C1 (stereo partly drawn) [Compound 349, benzyl ((8S,11S)-4^4-methyl-7,10,14-trioxo-8-phenethyl-3-oxa-6,9-diaza-1(3,1)-pyrrolidina-4(1,3)-benzenacyclotetradecaphane-11-yl)carbamate]",100 to 500,100 to 500,< 100
"Cc1ccc2cc1CNC(=O)[C@H](CCc1ccccc1)NC(=O)[C@@H](NC(=O)OCc1ccccc1)CCC(=O)N1CCC(CCO2)C1 (stereo partly drawn) [Compound 350, benzyl ((9S,12S)-5^4-methyl-8,11,15-trioxo-9-phenethyl-4-oxa-7,10-diaza-1(3,1)-pyrrolidina-5(1,3)-benzenacyclopentadecaphane-12-yl)carbamate]",< 100,< 100,< 100
"Cc1ccc2cc1CNC(=O)[C@H](CCc1ccccc1)NC(=O)[C@@H](NC(=O)OCc1ccccc1)CCCC(=O)N1CCC(CCO2)C1 (stereo partly drawn) [Compound 352, benzyl ((9S, 12S)-5^4-methyl-8,11,16-trioxo-9-phenethyl-4-oxa-7,10-diaza-1(3,1)-pyrrolidina-5(1,3)-benzenacyclohexadecaphane-12-yl)carbamate]",< 100,< 100,< 100
"Cc1ccc2cc1CNC(=O)[C@H](CCc1ccccc1)NC(=O)[C@@H](NC(=O)OCc1ccccc1)CCCCC(=O)N1CC(CCO2)C1 [Compound 353, benzyl ((9S,12S)-5^4-methyl-8,11,17-trioxo-9-phenethyl-4-oxa-7,10-diaza-1(3,1)-azetidina-5(1,3)-benzenacycloheptadecaphane-12-yl)carbamate]",< 100,< 100,< 100
"Cc1cc2cc(c1C)CNC(=O)C(c1cnn(C)c1)NC(=O)CCC(=O)N1CCCC(CCO2)C1 (stereo not drawn) [Compound 355, 5^4,5^5-dimethyl-9-(1-methyl-1H-pyrazol-4-yl)-4-oxa-7,10-diaza-1(3,1)-piperidina-5(1,3)-benzenacyclotetradecaphane-8,11,14-trione]",> 5000,1000 to 5000,< 100
"Cc1ccc2cc1CNC(=O)C(c1cnn(C)c1)NC(=O)CCCCC(=O)N1CCCC(CCO2)C1 (stereo not drawn) [Compound 356, 5^4-methyl-9-(1-methyl-1H-pyrazol-4-yl)-4-oxa-7,10-diaza-1(3,1)-piperidina-5(1,3)-benzenacyclohexadecaphane-8,11,16-trione]",500 to 1000,500 to 1000,< 100
"Cc1ccc2cc1CNC(=O)C(c1cnn(C)c1)NC(=O)[C@@H](NC(=O)CN1CCCC1)CC(=O)N1CCCC(CCO2)C1 (stereo partly drawn) [Compound 358, N-((12S)-5^4-methyl-9-(1-methyl-1H-pyrazol-4-yl)-8,11,14-trioxo-4-oxa-7,10-diaza-1(3,1)-piperidina-5(1,3)-benzenacyclotetradecaphane-12-yl)-2-(pyrrolidin-1-yl)acetamide]",< 100,100 to 500,< 100
"Cc1ccc2cc1CNC(=O)C(c1cnn(C)c1)NC(=O)[C@@H](NC(=O)[C@@H](C)c1ccccc1)CC(=O)N1CCCC(CCO2)C1 (stereo partly drawn) [Compound 359, (2S)-N-((12S)-5^4-methyl-9-(1-methyl-1H-pyrazol-4-yl)-8,11,14-trioxo-4-oxa-7,10-diaza-1(3,1)-piperidina-5(1,3)-benzenacyclotetradecaphane-12-yl)-2-phenylpropanamide]",< 100,< 100,< 100
"Cc1ccc2cc1CNC(=O)C(c1cnn(C)c1)NC(=O)[C@@H](NC(=O)C1CCCc3ccccc31)CC(=O)N1CCCC(CCO2)C1 (stereo partly drawn) [Compound 360, N-((12S)-5^4-methyl-9-(1-methyl-1H-pyrazol-4-yl)-8,11,14-trioxo-4-oxa-7,10-diaza-1(3,1)-piperidina-5(1,3)-benzenacyclotetradecaphane-12-yl)-1,2,3,4-tetrahydronaphthalene-1-carboxamide]",< 100,< 100,< 100
"CO[C@@H](C(=O)N[C@H]1CC(=O)N2CCCC(CCOc3ccc(C)c(c3)CNC(=O)C(c3cnn(C)c3)NC1=O)C2)c1ccccc1 (stereo partly drawn) [Compound 361, (2R)-2-methoxy-N-((12S)-5^4-methyl-9-(1-methyl-1H-pyrazol-4-yl)-8,11,14-trioxo-4-oxa-7,10-diaza-1(3,1)-piperidina-5(1,3)-benzenacyclotetradecaphane-12-yl)-2-phenylacetamide]",100 to 500,< 100,< 100
